Patent US8202865B2, “Oxadiazole derivatives” (Merck Serono SA, priority 2007, dated 2012)
pEC50, pKi: −log10 of the molar value. Counter-ions that a name gives are not always drawn.

Assays:
[1] = target: T1, S1P3 (Homo sapiens, UniProt Q99500); experiment: 35S-GTPγS binding, S1P3 membranes; assay type: biochemical; conditions: membranes from CHO cells expressing S1P3; 60 min 30° C.
T1 construct: expressed in transfected cells; host or cells: CHO cells (membranes)
Procedure: (§1) Receptor binding assay: Membranes were prepared from CHO cells expressing S1P1 or S1P3 for use in ligand and […] binding studies. Cells were suspended in 50 mM TRIS, pH 7.4, 2 mM EDTA, 250 mM Sucrose (buffer A) and 1× Complete protease inhibitor cocktail (Roche), and disrupted at 4° C. by N2 decompression using a cell disruption bomb (Parr Instrument). Following centrifugation at 1000 RPM for 10 min at 4° C., the supernatant was suspended in buffer A and centrifuged again at 19000 RPM for 60 min at 4° C. The pellet was then suspended in 10 mM HEPES, pH 7.4, 1 mM EDTA, 250 mM Sucrose (Buffer B), and 1× Complete EDTA-free protease inhibitor cocktail and homogenized using a potter. Membranes were flash frozen in liquid N2 and stored at −80° C. [33P]sphingosine 1-phosphate (3000 Ci/mmol; American Radiolabeled Chemicals, Inc.) was added to test compounds in DMSO. Membranes and WGA SPA beads (GE Healthcare) were added to give a final volume of 100 μl in 96-well plates with assay concentrations of 25 pM or 10 pM [33P]sphingosine 1-phosphate (respectively for S1P1 or S1P3), 50 mM HEPES, pH 7.5, 5 mM MgCl2, 100 mM NaCl, 0.4% fatty acid-free BSA, 1-5 μg/well of proteins and 100 μg/well of WGA SPA beads. Binding was performed for 60 min at RT on a shaker and bound radioactivity was measured on a PerkinElmer 1450 MicroBeta counter. Specific binding was calculated by subtracting remaining radioactivity in the presence of 1000-fold excess of unlabeled S1P. Binding data were analyzed using the GraphPad Prism program.
Measurements of ^35S-GTPγS Binding: Membranes (1 to 10 μg protein) prepared as described above, were incubated in 96-well Scintiplates (PerkinElmer) with test compounds diluted in DMSO, in 180 μl of 20 mM HEPES, pH 7.4, 10 mM MgCl2, 2 μg/well Saponin, 0.2% fatty acid free BSA (Assay buffer), 140 mM NaCl and 1.7 μM GDP. The assay was initiated with the addition of 20 μl of 1.5 nM [35S]-GTPγS (1100 Ci/mmol; GE Healthcare) in assay buffer. After 60 min incubation at 30° C. on a shaker, plates were centrifuged for 10 min at 2000 RPM. Supernatant was discarded and membrane bound radioactivity was measured on a PerkinElmer 1450 MicroBeta counter. Triplicate samples were averaged and expressed as % response relative to S1P activation in absence of compound (n=2).

[2] = target: T2, S1P1 (Homo sapiens, UniProt P21453); experiment: Receptor binding assay, [33P]sphingosine 1-phosphate, membranes, WGA SPA beads; conditions: membranes from CHO cells expressing S1P1; 25 pM [33P]S1P; 60 min RT
T2 construct: expressed in transfected cells; host or cells: CHO cells (membranes)
Procedure: as §1

[3] = target: T2, S1P1; experiment: 35S-GTPγS binding, S1P1 membranes; assay type: biochemical; conditions: membranes from CHO cells expressing S1P1; 60 min 30° C.
Outline: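 CHO-cell membranes expressing S1P1 or S1P3 (1-10 μg) incubated with compounds in 20 mM HEPES pH 7.4, 10 mM MgCl2, 140 mM NaCl, saponin, 0.2% BSA, 1.7 μM GDP and [35S]-GTPγS (20 μl of 1.5 nM added), 60 min at 30° C. Bound radioactivity expressed as % of S1P activation.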

T2 sequence (P21453 whole entry, species assumed): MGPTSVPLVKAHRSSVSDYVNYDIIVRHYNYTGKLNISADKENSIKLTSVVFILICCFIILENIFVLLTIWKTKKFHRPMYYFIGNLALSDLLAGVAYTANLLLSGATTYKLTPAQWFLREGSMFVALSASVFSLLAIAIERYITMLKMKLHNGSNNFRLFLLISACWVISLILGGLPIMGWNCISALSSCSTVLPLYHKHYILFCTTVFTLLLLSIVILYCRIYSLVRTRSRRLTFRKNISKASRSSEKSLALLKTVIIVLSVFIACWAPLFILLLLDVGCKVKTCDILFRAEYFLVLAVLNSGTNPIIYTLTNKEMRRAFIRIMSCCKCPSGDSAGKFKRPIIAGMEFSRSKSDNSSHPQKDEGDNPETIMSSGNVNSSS
T1 sequence (Q99500 whole entry, species assumed): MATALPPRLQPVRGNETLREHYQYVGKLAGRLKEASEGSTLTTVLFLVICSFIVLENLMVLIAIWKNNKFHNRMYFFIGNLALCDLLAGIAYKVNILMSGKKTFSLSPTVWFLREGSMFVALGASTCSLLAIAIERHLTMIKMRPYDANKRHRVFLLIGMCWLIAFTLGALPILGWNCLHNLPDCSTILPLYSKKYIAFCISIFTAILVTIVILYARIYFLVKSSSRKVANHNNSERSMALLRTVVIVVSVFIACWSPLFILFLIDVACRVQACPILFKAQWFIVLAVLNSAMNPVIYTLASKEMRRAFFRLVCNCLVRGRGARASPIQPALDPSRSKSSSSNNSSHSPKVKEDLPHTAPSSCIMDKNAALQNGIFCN

| SMILES | pEC50 [1] | pKi [2] | pEC50 [3] |
| --- | --- | --- | --- |
| COCc1cc(-c2nc(-c3cccc(CO)c3)no2)ccc1-c1ccccc1C [Example 189, (3-{5-[2-(methoxymethyl)-2′-methylbiphenyl-4-yl]-1,2,4-oxadiazol-3-yl}phenyl)methanol] | 6.24 | 9.00 | 8.68 |
| COCc1cc(-c2nc(-c3ccc(C(=O)NCCC(=O)O)c(F)c3)no2)ccc1-c1ccccc1C [Example 119, N-(2-fluoro-4-{5-[2-(methoxymethyl)-2′-methylbiphenyl-4-yl]-1,2,4-oxadiazol-3-yl}benzoyl)-beta-alanine] | 6.30 | 8.70 | 8.14 |
| COCc1cc(-c2nc(-c3ccc(CO)cc3)no2)ccc1-c1ccccc1C [Example 191, (4-{5-[2-(methoxymethyl)-2′-methylbiphenyl-4-yl]-1,2,4-oxadiazol-3-yl}phenyl)methanol] |  | 8.15 | 8.68 |
| CCC(C)Oc1ncc(-c2nc(-c3ccc(OCC(=O)O)c(F)c3)no2)cc1Cl (stereo not shown) [Example 50, {4-[5-(6-sec-butoxy-5-chloropyridin-3-yl)-1,2,4-oxadiazol-3-yl]-2-fluorophenoxy}acetic acid] |  | 7.30 | 6.58 |
| CCc1ccccc1-c1ccc(-c2nc(-c3ccc(C(=O)O)c(F)c3)no2)cc1COC [Example 78, 4-{5-[2′-ethyl-2-(methoxymethyl)biphenyl-4-yl]-1,2,4-oxadiazol-3-yl}-2-fluorobenzoic acid] | 5.52 | 8.70 | 7.82 |
| COCc1cc(-c2nc(-c3ccc(C(=O)O)c(F)c3)no2)ccc1-c1ccccc1C [Example 35, 2-fluoro-4-{5-[2-(methoxymethyl)-2′-methylbiphenyl-4-yl]-1,2,4-oxadiazol-3-yl}benzoic acid] |  | 8.00 | 7.52 |
| CC(C)Oc1ncc(-c2nc(-c3ccc(C(=O)O)c(F)c3)no2)cc1Cl [Example 36, 4-[5-(5-chloro-6-isopropoxypyridin-3-yl)-1,2,4-oxadiazol-3-yl]-2-fluorobenzoic acid] |  | 6.28 |  |
| Cc1ccccc1-c1ccc(-c2nc(-c3ccc(C(=O)NCC(=O)O)c(F)c3)no2)cc1C [Example 54, N-{4-[5-(2,2′-dimethylbiphenyl-4-yl)-1,2,4-oxadiazol-3-yl]-2-fluorobenzoyl}glycine] | 5.19 |  | 6.77 |
| CC(C)COc1ncc(-c2nc(-c3ccc(C(=O)O)c(F)c3)no2)cc1Cl [Example 34, 4-[5-(5-chloro-6-isobutoxypyridin-3-yl)-1,2,4-oxadiazol-3-yl]-2-fluorobenzoic acid] |  | 5.53 | 5.30 |
| CC1CCCCN1c1ccc(-c2nc(-c3ccc(S(N)(=O)=O)cc3)no2)cc1NS(C)(=O)=O (stereo not shown) [Example 37, 4-(5-{4-(2-methylpiperidin-1-yl)-3-[(methylsulfonyl)amino]phenyl}-1,2,4-oxadiazol-3-yl)benzenesulfonamide] |  | 8.00 | 8.80 |
| Cc1ccccc1-c1ccc(-c2nc(-c3ccc(C(=O)NCCC(=O)O)c(F)c3)no2)cc1C [Example 55, N-{4-[5-(2,2′-dimethylbiphenyl-4-yl)-1,2,4-oxadiazol-3-yl]-2-fluorobenzoyl}-beta-alanine] | 4.90 |  | 7.28 |
| COCc1cc(-c2nc(-c3cccc(CCO)c3)no2)ccc1-c1ccccc1C [Example 190, 2-(3-{5-[2-(methoxymethyl)-2′-methylbiphenyl-4-yl]-1,2,4-oxadiazol-3-yl}phenyl)ethanol] |  | 8.37 | 9.15 |
| CC1CCCCN1c1ccc(-c2nc(-c3cccc(CN(C)CC(=O)O)c3)no2)cc1NS(C)(=O)=O (stereo not shown) [Example 57, N-methyl-N-[3-(5-{4-(2-methylpiperidin-1-yl)-3-[(methylsulfonyl)amino]phenyl}-1,2,4-oxadiazol-3-yl)benzyl]glycine, Hydrochloride salt] |  | 8.22 | 8.40 |
| CC1CCCCN1c1ccc(-c2nc(-c3ccc(C(=O)O)c(F)c3)no2)cc1[N+](=O)[O-] (stereo not shown) [Example 15, 2-fluoro-4-{5-[4-(2-methylpiperidin-1-yl)-3-nitrophenyl]-1,2,4-oxadiazol-3-yl}benzoic acid] | < 4.52 |  | 5.91 |
| COCc1cc(-c2nc(-c3ccc(F)c(CN(C)CC(=O)O)c3)no2)ccc1N1CCCCC1C (stereo not shown) [Example 152, N-(2-fluoro-5-{5-[3-(methoxymethyl)-4-(2-methylpiperidin-1-yl)phenyl]-1,2,4-oxadiazol-3-yl}benzyl)-N-methylglycine, Dihydrochloride salt] | 6.65 |  | 9.22 |
| COCc1ccccc1-c1ccc(-c2nc(-c3ccc(C(=O)O)c(F)c3)no2)cc1COC [Example 85, 4-{5-[2,2′-bis(methoxymethyl)biphenyl-4-yl]-1,2,4-oxadiazol-3-yl}-2-fluorobenzoic acid] | 5.64 |  | 6.25 |
| COCc1cc(-c2nc(-c3ccc(C(=O)NCC(=O)OC)c(F)c3)no2)ccc1-c1ccccc1C [Example 122, Methyl N-(2-fluoro-4-{5-[2-(methoxymethyl)-2′-methylbiphenyl-4-yl]-1,2,4-oxadiazol-3-yl}benzoyl)glycinate] |  | 9.05 | 8.60 |
| COCc1cc(-c2nc(-c3ccc(OCCCC(=O)O)c(F)c3)no2)ccc1-c1ccccc1C [Example 168, 4-(2-fluoro-4-{5-[2-(methoxymethyl)-2′-methylbiphenyl-4-yl]-1,2,4-oxadiazol-3-yl}phenoxy)butanoic acid] | 6.66 |  | 8.11 |
| COCc1cc(-c2nc(-c3cccc(OCC(=O)O)c3)no2)ccc1-c1ccccc1C [Example 167, (3-{5-[2-(methoxymethyl)-2′-methylbiphenyl-4-yl]-1,2,4-oxadiazol-3-yl}phenoxy)acetic acid] |  | 8.00 | 7.65 |
| CC(C)Oc1ncc(-c2nc(-c3ccc(OCC(=O)O)c(F)c3)no2)cc1Cl [Example 53, {4-[5-(5-chloro-6-isopropoxypyridin-3-yl)-1,2,4-oxadiazol-3-yl]-2-fluorophenoxy}acetic acid] | < 4.70 |  | 6.53 |
| COc1ccccc1-c1ccc(-c2nc(-c3ccc(C(=O)O)c(F)c3)no2)cc1C [Example 7, 2-fluoro-4-[5-(2′-methoxy-2-methylbiphenyl-4-yl)-1,2,4-oxadiazol-3-yl]benzoic acid] | < 4.52 |  | 6.03 |
| Cc1cccc(C)c1-c1ccc(-c2nc(-c3ccc(C(=O)O)c(F)c3)no2)cc1 [Example 3, 4-[5-(2′,6′-dimethylbiphenyl-4-yl)-1,2,4-oxadiazol-3-yl]-2-fluorobenzoic acid] |  | 5.59 |  |
| COCCN(C)Cc1cccc(-c2noc(-c3ccc(-c4ccccc4C)c(COC)c3)n2)c1 [Example 185, 2-methoxy-N-(3-{5-[2-(methoxymethyl)-2′-methylbiphenyl-4-yl]-1,2,4-oxadiazol-3-yl}benzyl)-N-methylethanamine, Hydrochloride salt] |  | 8.15 | 8.30 |
| COCc1cc(-c2nc(-c3ccc(C(=O)NCCC#N)c(F)c3)no2)ccc1-c1ccccc1C [Example 173, N-(2-cyanoethyl)-2-fluoro-{5-[2-(methoxymethyl)-2′-methylbiphenyl-4-yl]-1,2,4-oxadiazol-3-yl}benzamide] |  | 8.70 | 8.22 |
| O=C(O)c1ccc(-c2noc(-c3ccc(-c4ccccc4C(F)(F)F)cc3)n2)cc1F [Example 1, 2-fluoro-4-{5-[2′-(trifluoromethyl)biphenyl-4-yl]-1,2,4-oxadiazol-3-yl}benzoic acid] |  | 5.61 |  |
| Cc1ccccc1-c1ccc(-c2nc(-c3ccc(C(=O)O)c(F)c3)no2)cc1[N+](=O)[O-] [Example 11, 2-fluoro-4-[5-(2′-methyl-2-nitrobiphenyl-4-yl)-1,2,4-oxadiazol-3-yl]benzoic acid] | < 4.52 |  | 6.19 |
